# Literature values as cited in paper PMC4474859 (PLoS ONE, 2015).
# Experiments:
# MmImpα = details: in words
# Text: (§1) Affinity assays between NLS peptides and Impα proteins have been performed based in indirect affinity measurements, using Surface Plasmon Resonance (SPR), and ITC [19, 38, 55]. Indirect affinity measurements between NLSs and Impα proteins reported dissociation constants in the nM range and permitted the comparison among these molecules. SPR experiments was only able to estimate the peptide-protein affinity in the μM range which was lately confirmed by ITC experiments.
# Impα/Impβ complex = details: full length protein vs NLS peptide
# Text: as §1
binding site on MmImpα (MmImpα),Substance,increase in affinity compared to just nucleoplasmin NLS peptide (Impα/Impβ complex) [fold]
binds only the minor site of MmImpα,GSIIRKWN [hPLSCR4 NLS peptide],–
–,full length nucleoplasmin protein: full length nucleoplasmin protein binds to Impα/Impβ complex,2
